The text below walks through data of patent US12319913B2, “5-halouracil-modified microRNAs and their use in the treatment of cancer” (The Research Foundation for The State University of New York, priority 2018, dated 2025).

[5FU] = 5-fluorouracil base replacing uracil

Common to all, as to assay type: cell-based, human
Series [1] relates to AsPC-1 pancreatic cancer cells. Briefly: Cell proliferation, AsPC-1. The conditions noted are these: for cell proliferation, dose dependence: APSC-1, 50 nM, 25 nM, 12.5 nM, 6.25 nM, and 3.125 nM.
The next series concerns HCT-116 cells. Briefly: Cell cycle analysis by flow cytometry, colon cancer cells. The method, then: Cell cycle analysis: Twenty-four hours after transfection, cells were harvested and resuspended at 0.5 to 1×10^6 cells/mL in modified Krishan's buffer supplemented with 0.02 mg/mL RNase H and 0.05 mg/mL propidium iodide. Stained cells were detected by flow cytometry and results were analyzed with Modfit LT™ software. The experiments for cell cycle analysis were performed at least three times.
On the technique in general: Flow cytometry measures light scatter and fluorescence of single cells or particles in a stream.

Series [2] has as its system HCT116 colon cancer cells. Briefly: WST-1 cell proliferation assay, HCT116. The conditions noted are these: for inhibition of colon cancer cell proliferation: HCT116, in words, vs controls. The protocol:
For transfections, […] (Thermo Fischer) following the manufacturer's protocols. For reagent free transfection, cells were plated in 6 well plates at (1×10^5) cells per well. Twenty-four hours later 100 pmol miRNA (Control, miR-15a, Mimic-1) were diluted in Optimem (Thermo Fischer) and added to the plate. Media was changed after 24 hours. Media was supplemented with 10% fetal bovine serum (Thermo Fischer). Briefly, cells were cultured in growth media (DMEM/F12 supplemented with B27, 10 ng/mL bFGF, and 20 ng/mL EGF (Life Technologies) in ultra-low attachment flasks) for up to 6 days. The spheroid cells were maintained by collection through gentle centrifugation, dissociation to single cells and replating.
Cell proliferation assay: Twenty-four hours after transfection, cells were seeded in 96-well plates at a density of 2000 cells per well. The cell proliferation assay was performed on days 1 to 5 by incubating 10 μl WST-1 (Roche Applied Science, Mannheim, Germany) in the culture medium for 1 h and reading the absorbance at 450 and 630 nm. The cell proliferation rate was calculated by subtracting the […]. Experiments for the cell proliferation assay were performed at least three times. The O.D. was calculated by subtracting the absorbance at 630 nm from that at 450 nm. Proliferation experiments were performed three times.

The next series has as its system A549 lung cancer cells. Briefly: Cell proliferation, A549. The conditions noted are these: for lung cancer cell proliferation: A549, compared to negative controls; for inhibition of cell proliferation: A549, compared to unmodified miR or negative controls. In outline:
(§1)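 Cells were transfected with 100 nM control, modified or native miRNA via Oligofectamine, or reagent-free with 100 pmol miRNA, then reseeded 24 h later at 2000 cells/well. WST-1 was added for 1 h on days 1 to 5, and O.D. was taken as absorbance at 450 nm minus 630 nm.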

The test system of a further series is AGS stomach cancer cells. Briefly: Cell proliferation, AGS. The conditions noted are these: compared to negative controls. In outline: as §1
Series [3] concerns Hs766T pancreatic cancer cells. Briefly: Cell proliferation, Hs766T. Particulars: compared to negative controls. In outline:
as §1

Series [4] concerns SKBR3 breast cancer cells. Briefly: Cell proliferation, SKBR3. Particulars: SKBR3, compared to negative controls. In outline:
as §1

Another series deals with SW620 colon cancer cells. Briefly: WST-1 cell proliferation assay, SW620. The conditions noted are these: SW620, in words, vs controls. The method, then: (§2) For transfections, 1×10^5 cells were plated in six-well plates and transfected with 100 nM of control non-specific miRNA (Thermo Fischer), a modified microRNA, or exogenous native microRNA after 24 hours using Oligofectamine (Thermo Fischer) following the manufacturer's protocols. For reagent free transfection, cells were plated in 6 well plates at (1×10^5) cells per well. Twenty-four hours later 100 pmol miRNA (Control, miR-15a, Mimic-1) were diluted in Optimem (Thermo Fischer) and added to the plate. Media was changed after 24 hours. Media was supplemented with 10% fetal bovine serum (Thermo Fischer). Briefly, cells were cultured in growth media (DMEM/F12 supplemented with B27, 10 ng/mL bFGF, and 20 ng/mL EGF (Life Technologies) in ultra-low attachment flasks) for up to 6 days. […]
(§3) Cell proliferation assay: Twenty-four hours after transfection, cells were seeded in 96-well plates at a density of 2000 cells per well. The cell proliferation assay was performed on days 1 to 5 by incubating 10 μl WST-1 (Roche Applied Science, Mannheim, Germany) in the culture medium for 1 h and reading the absorbance at 450 and 630 nm. The cell proliferation rate was calculated by subtracting the absorbance at 450 nm from the absorbance at 630 nm. […] The O.D. was calculated by subtracting the absorbance at 630 nm from that at 450 nm. […]
On the technique in general: Tetrazolium assays rely on reduction of a dye to a coloured formazan, in cell work by metabolically active cells.

Series [5] concerns acute lymphocytic leukemia cell line (REH). The series can be described thus: Cell proliferation, REH. The conditions noted are these: compared to negative controls.
For another series, the system named is RKO colon cancer cells. The series can be described thus: WST-1 cell proliferation assay, RKO. Particulars: in words, vs controls. The method, then:
as §2, §3

Another series relates to colon cancer stem cells. Briefly: Anchorage-independent colony formation (soft agar). The conditions noted are these: soft agar / Matrigel matrix. The method, then: Anchorage-independent proliferation was studied to determine cancer cell colony forming ability. Cancer cells were trypsinized and counted and a total of 1×10^5 cells per well were transfected in 6-well plates with 25 nM modified microRNA or native miRs or a negative control miRNA with oligofectamine, and 6 hours after transfection, cells were recounted. A total of 20,000 cells in 0.35% agar (Bacto Agar; Becton Dickinson) were layered on top of 1 mL of a solidified 0.6% agar layer in a 35-mm dish. Growth media with B27, 10 ng/mL bFGF, and 20 ng/mL EGF were included in both layers. After 2 weeks of incubation, colonies more than […] in diameter were counted.

For series [6], the system named is acute lymphocytic leukemia cell line (REH). The series can be described thus: Cell proliferation, REH. Particulars: 50 nM, 25 nM, 12.5 nM, 6.25 nM, and 3.125 nM.
Series [7] relates to Panc-1 pancreatic cancer cells. The series can be described thus: Cell proliferation, Panc-1. Particulars: for cell proliferation, dose dependence: PANC-1, 50 nM, 25 nM, 12.5 nM, 6.25 nM, and 3.125 nM.

For the substance “CU^FU^FU^FU^FU^FGCGGU^FCU^FGGGCU^FU^FGC (CUUUUUGCGGUCUGGGCUUGC; RNA, [5FU] at 2, 3, 4, 5, 6, 11, 13, 18, 19, backbone not given here) [modified miR-129]”, the “cell proliferation, dose dependence” value in series [1] and in series [7] was “inhibited in a dose dependent manner” in each case. For the same substance, in the series with HCT-116 cells (HCT-116, flow cytometry), the “G1 arrest, potency relative to native miR-129” value is reported as “more than two-fold”. Also, in [2] (50 nM), the “HCT-116 tumor cell growth” value is on record as “suppress HCT-116 tumor cell growth completely”. Moreover, the “inhibition of colon cancer cell proliferation” value (in [2]; in the series with SW620 colon cancer cells; in the series with RKO colon cancer cells) was “inhibition of colon cancer cell proliferation” each time. Further, the “inhibitory effect on cell proliferation relative to native miR-129” value in series [2] (HCT-116, FIG. 3) is given as “much more potent than the native miR-129”. Further, the “lung cancer cell proliferation” value in the series with A549 lung cancer cells is on record as “inhibited”. Moreover, in the series with A549 lung cancer cells, the “inhibition of cell proliferation” value was “enhanced ability to inhibit”. For the same substance, the “gastric cancer cell proliferation” value with AGS stomach cancer cells is listed as “inhibited”. Moreover, the “pancreatic cancer cell proliferation” value in [3] is listed as “inhibited”. Further, the “breast cancer cell proliferation” value in series [4] is listed as “inhibited”. For the same substance, in [5], the “leukemia cancer cell proliferation” value was “inhibited”. For the same substance, in the series with colon cancer stem cells, the “colony / sphere formation” value was “formed no visible spheres”. Also, the “leukemia cancer cell proliferation, dose dependence” value in series [6] is on record as “inhibited in a dose dependent manner”.

“U^FAGCAGCACAU^FAAU^FGGU^FU^FU^FGU^FG (UAGCAGCACAUAAUGGUUUGUG; RNA, [5FU] at 1, 11, 14, 17, 18, 19, 21, backbone not given here) [modified miR-15a]”: the “cell proliferation, dose dependence” value in series [1] and in series [7] was “inhibited in a dose dependent manner” each time. Also, the “inhibition of cell proliferation” value in series [1] (AsPC-1, compared to unmodified miR or negative controls) was “enhanced ability to inhibit”; in the series on A549 lung cancer cells, “enhanced ability to inhibit”; in [7] (Panc-1, compared to unmodified miR or negative controls), “enhanced ability to inhibit”. Moreover, the “increase in the G1/S ratio” value in the series with HCT-116 cells (colon cancer cells, compared to the control) worked out at 7 fold. In addition, the “inhibition of colon cancer cell proliferation” value (in [2]; with SW620 colon cancer cells; with RKO colon cancer cells) was “enhanced ability to inhibit colon cancer cell proliferation” throughout. Besides, in [2] (HCT-116, WST-1, six days after transfection), the “decrease of cell proliferation compared to control” value is recorded as 84%. In addition, in the series on A549 lung cancer cells, the “lung cancer cell proliferation” value is listed as “inhibited”. For the same substance, in the series on AGS stomach cancer cells, the “gastric cancer cell proliferation” value is reported as “inhibited”. Besides, the “pancreatic cancer cell proliferation” value in [3] is “inhibited”. Besides, the “breast cancer cell proliferation” value in series [4] is recorded as “inhibited”. Besides, the “leukemia cancer cell proliferation” value in series [5] is listed as “inhibited”. Moreover, in the series on colon cancer stem cells, the “colony / sphere formation” value is recorded as “no colonies were observed”. The “leukemia cancer cell proliferation, dose dependence” value in [6] is recorded as “inhibited in a dose dependent manner”.
